From publication PMC9775191, “A Subset Screen of the Compounds Australia Scaffold Library Identifies 7-Acylaminodibenzoxazepinones as Potent and Selective Hits for Anti-Giardia Drug Discovery” (Biomedicines, 2022)

Test system: G. duodenalis BRIS/91/HEPU/1279
Experiment: Primary Giardia screen at 10 µM (live-cell imaging, automated counting)
Type: cell-based, Giardia duodenalis
Conditions: for % Inhibition n=1 24h / % Inhibition n=1 48h: first singlicate assay; for % Inhibition n=2 24h / % Inhibition n=2 48h: re-assessment
Protocol: Each compound was assessed in singlicate, at a final concentration of 10 μM (0.4 μL of a 5 mM stock; diluted to a final volume of 200 μL in culture medium; 0.2% DMSO). […] Plates were incubated in sealed chambers filled with 3% O2, 5% CO2 in N2 and growth was assessed at 24 and 48 h using live cell imaging and automated counting as previously described. Growth inhibition was calculated by subtracting media only background counts and determining percentage growth relative to vehicle (0.2% DMSO) controls. The reliability of these assays was assessed by calculating Z’ factors for each plate as previously described.

Row | Compound | % Inhibition n=1 48h [%] | further results
1 | O=C(NCc1ccco1)c1cnn2c1N[C@@H](c1ccc(Br)cc1)C[C@H]2C(F)(F)F (relative stereo) [SN00783428] | 35.3 | Average % Inhibition 24h: 15.1%; % Inhibition n=1 24h: 27.8%; % Inhibition n=2 24h: 2.5%; Average % Inhibition 48h: 18.5%; % Inhibition n=2 48h: 1.8%
2 | Cc1ccc([C@@H]2C[C@H](c3ccccc3)n3nnnc3N2)cc1 (relative stereo) [SN00783518] | 40.1 | Average % Inhibition 24h: 10.7%; % Inhibition n=1 24h: 21.3%; % Inhibition n=2 24h: 0.0%; Average % Inhibition 48h: 20.0%; % Inhibition n=2 48h: 0.0%
3 | CC(=O)N1N=C2C3CCN(CC3)[C@@H]2[C@@H]1c1cccc2ccccc12 (relative stereo) [SN00783777] | 0.0 | 
4 | COc1cccc([C@H]2C[C@@H](C(F)(F)F)n3ncc(C(=O)N4CCCCC4)c3N2)c1 (relative stereo) [SN00783803] | 0.0 | 
5 | CCc1ccc(NC(=O)[C@@H]2c3cc(OC)c(OC)cc3C(=O)N3CCCC[C@@H]23)cc1 (relative stereo) [SN00784165] | 28.1 | 
6 | O=C(NCc1ccccc1Cl)[C@H]1[C@H]2C(=O)N(Cc3cccs3)C[C@]23C=C[C@H]1O3 (relative stereo) [SN00784242] | 22.4 | 
7 | CCCNC(=O)[C@@H]1[C@@H]2C=C[C@@]3(CN(Cc4ccccc4Cl)C(=O)[C@H]13)O2 (relative stereo) [SN00784246] | 16.0 | 
8 | CCCN(C(=O)c1cccc(NC(=O)[C@H]2[C@@H]3C[C@@H]4[C@H]2C(=O)O[C@@H]4C3)c1)c1ccccc1F (relative stereo) [SN00785932] | 2.8 | 
9 | Cc1ccc(S(=O)(=O)[C@H]2CS(=O)(=O)C[C@@H]2N2CCC(C(N)=O)CC2)cc1 (relative stereo) [SN00786616] | 0.0 | 
10 | CSc1ccc(NC(=O)N2C[C@@H]3C[C@H]2C[C@@H]3NC(=O)c2cccs2)cc1 (relative stereo) [SN00800991] | 17.8 | 
11 | C[C@@]1(O)CCN(C(=O)c2cccc(F)c2)C[C@H]1N1CCCC1 (relative stereo) [SN00801211] | 0.0 | 
12 | CN(C[C@@]12CCC[C@H]1N(C)C(=O)CC2)C(=O)c1ccc2c(c1)OCO2 (relative stereo) [SN00801319] | 28.7 | 
13 | CNC(=O)N1C[C@@H](CN(C)C)[C@@H](C2CCN(CCC(C)C)CC2)C1 (relative stereo) [SN00801505] | 0.0 | 
14 | COc1ccc(-c2nc(CN3C(=O)C(=O)N(C(C)C)C3=O)cs2)cc1 [SN00769384] | 0.0 | 
15 | Cc1oc(-c2ccccc2)nc1C(=O)N1CCN(S(=O)(=O)c2ccc(Br)s2)CC1 [SN00769595] | 23.5 | 
16 | O=C(C1CCCN(c2cnccn2)C1)N1CCN(Cc2cccs2)CC1 (stereo not shown) [SN00769722] | 17.2 | 
17 | CC(C)(C)OC(=O)N1CCN(C(=O)C2CCCNC2)CC1 (stereo not shown) [SN00769730] | 15.1 | 
18 | CC(=O)c1c(C)[nH]c(C(=O)Nc2nc(-c3ccco3)c(-c3ccco3)s2)c1C [SN00769770] | 59.6 | Average % Inhibition 24h: 25.0%; % Inhibition n=1 24h: 21.9%; % Inhibition n=2 24h: 28.1%; Average % Inhibition 48h: 52.7%; % Inhibition n=2 48h: 45.9%
19 | O=C(Nc1nc(-c2cc3ccccc3oc2=O)cs1)c1cccc(C(F)(F)F)c1 [SN00769798] | 0.0 | 
20 | CC(NC(=O)C1CCOCC1)c1nc(-c2cccnc2)cs1 (stereo not shown) [SN00769908] | 0.0 | 

Row | Compound | % Inhibition n=1 48h [%] | further results
21 | O=C(c1ccc(Cl)c(S(=O)(=O)NCC2CCCO2)c1)N1CC=C(c2ccccc2)CC1 (stereo not shown) [SN00769948] | 6.8 | 
22 | O=C(C1CCN(S(=O)(=O)c2ccccc2)CC1)N1CC=C(c2ccccc2)CC1 [SN00769994] | 0.0 | 
23 | CC(C)(C)C(=O)N1CCC(C(=O)N2CC=C(c3ccc(F)cc3)CC2)CC1 [SN00770003] | 0.0 | 
24 | O=C(/C=C/c1cccc([N+](=O)[O-])c1)Nc1ccc2c(c1)nc1n2CCCCC1 [SN00770035] | 0.0 | 
25 | c1ccc(-n2nnnc2N2CCN(C3CC3)CC2)cc1 [SN00770081] | 0.0 | 
26 | Cc1ccccc1C(=O)N1CCN(C(=O)c2[nH]nc3ccccc23)CC1 [SN00770261] | 25.4 | 
27 | CC(C)n1ncc2c(C(=O)N3CCC(NS(=O)(=O)c4cccs4)CC3)cc(C3CC3)nc21 [SN00770479] | 0.0 | 
28 | CN1CCN(Cc2nc3ccccc3c(=O)n2Cc2nc(-c3cccc([N+](=O)[O-])c3)cs2)CC1 [SN00770541] | 11.4 | 
29 | Cc1cc2n(CC(O)COc3ccccc3F)c(=O)c3ccccc3n2n1 (stereo not shown) [SN00770617] | 17.7 | 
30 | Cc1csc(/C(=C\c2cc(C)n(-c3ccnn3C(C)C)c2C)CN)n1 [SN00770781] | 5.0 | 
31 | NC(=O)c1cn(Cc2nc(-c3ccoc3)no2)nc1-c1ccccc1 [SN00770936] | 0.0 | 
32 | c1cncc(-c2nc(Sc3nnnn3CC3CCCO3)c3ccccc3n2)c1 (stereo not shown) [SN00771230] | 11.8 | 
33 | Cc1cc2nc(Sc3nnnn3CC3CCCO3)c3ccccc3n2n1 (stereo not shown) [SN00771233] | 16.5 | 
34 | CCC1c2ccsc2CCN1C(=O)C1CCN(S(=O)(=O)c2ccc(Cl)c([N+](=O)[O-])c2)CC1 (stereo not shown) [SN00771236] | 27.8 | 
35 | CC1(c2ccco2)NC(=O)N(CC(=O)c2ccccc2)C1=O (stereo not shown) [SN00771276] | 12.8 | 
36 | CC1(c2ccco2)NC(=O)N(NC(=O)c2sc3ccccc3c2Cl)C1=O (stereo not shown) [SN00771283] | 16.0 | 
37 | CCc1ccccc1Nc1nc(N)nc(CN2CCCN(S(=O)(=O)c3ccc(C)cc3)CC2)n1 [SN00771296] | 10.0 | 
38 | COc1ccc(CN2CCCN(C(=O)c3cn4ccc(C)cc4n3)CC2)cc1 [SN00771379] | 0.0 | 
39 | Cc1cc(C(=O)N2CCCN(c3cccnn3)CC2)c(C)n1C(C)C [SN00771426] | 0.0 | 
40 | CCn1ccnc1CN1CCCN(C(=O)c2cnc(C)cn2)CC1 [SN00771476] | 10.9 | 

Row | Compound | % Inhibition n=1 48h [%] | further results
41 | C/C=C/c1ccc(OCC(=O)N2CCCN(C(=O)C3CCCC3)CC2)c(OC)c1 [SN00771493] | 16.5 | 
42 | CC(=O)N1CCCN(Cc2ncc(Cl)n2C)CC1 [SN00771536] | 46.7 | 
43 | COC(=O)CNC(=O)c1cn(-c2ccc(C(F)(F)F)cn2)nn1 [SN00771716] | 0.0 | 
44 | c1ccc2sc(N3CCCC3c3nnc4n3CCCCC4)nc2c1 (stereo not shown) [SN00771886] | 12.0 | 
45 | Cn1ncc2c(NC3CCN(Cc4ccncc4)CC3)ncnc21 [SN00771916] | 0.0 | 
46 | O=C(C(c1ccccc1)c1ccccc1)N1CCCC(c2nnc3n2CCCCC3)C1 (stereo not shown) [SN00771924] | 8.5 | 
47 | COc1cccc(CCC(=O)N2CCCC(c3nnc4n3CCCCC4)C2)c1 (stereo not shown) [SN00771943] | 2.6 | 
48 | CSc1ccc(Cl)c(C(=O)N2CCCN(C(=O)c3ccncc3)CC2)c1 [SN00771952] | 45.6 | 
49 | O=C(COc1ccccc1)N1CCCN(c2cccnn2)CC1 [SN00772032] | 1.9 | 
50 | Cc1ccc(N2CCCN(C(=O)CN(C)C3CC3)CC2)nn1 [SN00772050] | 11.9 | 
51 | O=C(Nc1ccccc1)N1CCCC1CN1CCCCC1 (stereo not shown) [SN00772093] | 16.8 | 
52 | O=C(NCc1ccc(F)cc1)N1CCCCC1c1nc(-c2ccccc2)no1 (stereo not shown) [SN00772110] | 0.0 | 
53 | O=C(CCN1C(=O)CCC1=O)N1CCCC(N2CCCCCC2)C1 (stereo not shown) [SN00772233] | 7.1 | 
54 | CC(=O)c1c(C)[nH]c(C(=O)N2CCCC2c2nc(-c3cccc(C(F)(F)F)c3)c[nH]2)c1C (stereo not shown) [SN00772247] | 17.0 | 
55 | Cc1nn(C)c(N2CCN(C(C)c3nc4ccccc4s3)CC2)c1[N+](=O)[O-] (stereo not shown) [SN00772279] | 10.6 | 
56 | Cc1nnc(CN2CCN(CC(O)COCc3ccco3)CC2)n1C (stereo not shown) [SN00772332] | 57.1 | Average % Inhibition 24h: 0.0%; % Inhibition n=1 24h: 0.0%; % Inhibition n=2 24h: 0.0%; Average % Inhibition 48h: 28.5%; % Inhibition n=2 48h: 0.0%
57 | CCOC(=O)c1ccsc1NC(=O)CN1CCNC(=O)CC1c1ccccc1 (stereo not shown) [SN00772435] | 0.0 | 
58 | CC(C)(C)NS(=O)(=O)c1ccc(N2CCC(c3nnc4n3CCC4)CC2)c([N+](=O)[O-])c1 [SN00772456] | 4.6 | 
59 | Cn1ncc2c(=O)[nH]c(CN3CCCC3Cc3ccccc3)nc21 (stereo not shown) [SN00772513] | 21.0 | 
